From US20200316087A1, “NOVEL COMBINATION THERAPY FOR ANXIETY DISORDERS, EPILEPSY, AND PAIN” (priority 2017, published 2020)

What was measured:
[1] = tested on: CFA-induced mechanical hyperalgesia; test: Complete Freund's adjuvant inflammatory pain, von Frey filament test; format: in vivo, rats
Experimental: Complete Freund's adjuvant (CFA) contains Mycobacterium butyricum, inducing inflammation and an increase in paw thickness. 0.1 mL of CFA was injected in the right hind paw of Sprague Dawley male rats under isoflurane anaesthesia. Mechanical hyperalgesia may be measured 2-3 days after CFA treatment. Rats (n=6) are placed in elevated boxes with a mesh floor. Von Frey filaments (expressed in g) are applied perpendicularly to the hindpaws, starting with the lowest filament (1.4 g) then increased until hindpaw withdrawal is observed. After each measurement, rats receive the next dose of drug (every 20 min) until the maximum threshold (26 g) is observed. For the antagonist study, rats are pretreated with the benzodiazepine site antagonist (10 min) and then receive the next dose of drug (every 20 min) until the pre-CFA threshold was observed.
3PBC.HCl was dissolved in a mixture containing 10% ethanol, 50% propylene glycol, and 40% sterile water. BCCt was dissolved in propylene glycol and then heated in a water bath up to 70° C. Midazolam (Akorn, Inc.) was dissolved in 0.9% saline. Doses were expressed as the weight of the drug in milligrams per kilogram of body weight and drugs were administered intraperitoneally.
Starting 2 days after CFA treatment, mechanical hyperalgesia was measured on days 0, 4, and 8. On days 1-3 and 5-7 rats were pretreated with either 3PBC.HCl (5.6 mg/kg), β-carboline-3-carboxylate-t-butyl ester (BCCt) (3.2 mg/kg) or saline twice a day (a.m. injections (9:00-10:30) and p.m. injections (5:00-6:30)) in their home cages. Rats were treated with midazolam (5.6 mg/kg) immediately after pretreatment of 3PBC.HCl, BCCt, or saline. On days 0 and 4, rats only received p.m. injections due to the mechanical hyperalgesia test done in the a.m.
The anti-hyperalgesic effects of midazolam were quantified for each animal as percent maximal possible effect (MPE) for each drug dose by using the following formula: percent MPE=[(post-drug value for a behavioral response (g)−pre-drug value for a behavioral response)/(pre-CFA value-pre-drug value for a behavioral response)×100.

[2] = tested on: motor performance on an inverted screen; test: Rat inverted screen test (motor impairment); settings: rats
Source text: The motor effects of Diazepam and KRM-II-81 were studied on the inverted screen. The inverted screen test is used to measure whether or not a test compound induces muscle relaxation. When a test subject is placed on a wire screen which is then inverted, the reaction is to climb to the opposite side so they are no longer hanging upside down.
Male, Sprague Dawley rats (Harlan Sprague Dawley, Indianapolis, Ind.) were used and weighed 90-110 g when evaluated in experiments. […] Rats were placed onto the top of a wire screen, which was then inverted so that the rats were hanging upside down.
Male Sprague-Dawley rats (n=5) were dosed i.p. (vehicle=1% carboxymethyl cellulose) with diazepam (3, 10, or 30 mg/kg), KRM-II-81 (10, 30, or 60 mg/kg) or HZ-166 (30 mg/kg) 30 minutes prior to testing. Rats were placed onto the top of a wire screen, which was then inverted so that the rats were hanging upside down. […] Results were analyzed using ANOVA (Dunnett's test: *P<0.05).
(§1) For the in vivo assays, minimal effective doses (MED) were calculated in mg/kg. MED was defined as the lowest dose administered that produced statistically significant protection compared to vehicle control in the anticonvulsant assays. The MED, or minimal toxic dose (MTD) for motor impairment, was the minimal dose required to produce statistically-significant impairment in motor performance. Doses tested are shown in the figures and tables and are generally dosed in ½ log increments. The protective index (PT) was calculated at the MTD/MED.

[3] = tested on: PTZ seizure threshold; test: Pentylenetetrazole (PTZ, i.v.)-induced seizure threshold; format: in vivo, rats
Experimental: Male […] Sprague-Dawley rats (Indianapolis, Ind.) were randomly assigned to treatment groups and dosed with vehicle (vehicle=1% carboxymethyl cellulose) with diazepam (0.1, 0.3, or 1 mg/kg) or test compound (3, 10, 30, or 60 mg/kg) 30 minutes prior to testing. Rats were placed in a restrainer and a winged infusion needle was inserted into the lateral tail vein. Intravenous infusion with 10 mg/ml PTZ at a rate of 0.5 ml/min was initiated until a clonic convulsion occurred, and the time to clonic convulsion was recorded in sec or a maximum of 4 min was recorded. Following infusion, rats are euthanized. The dose of PTZ required to elicit a clonic convulsion was calculated using the infusion rate, concentration of PTZ, time to clonic convulsion, and animal weight.

[4] = tested on: seizures in amygdala kindled rats; test: Basolateral amygdala kindling; format: in vivo
Experimental: Seizure kindling models evaluate effects of drugs on the sensitization of the nervous system to seizure induction. In this test, drugs were evaluated for their ability to impact seizure parameters in rats that were fully kindled by daily electrical stimulation of their amygdala. Valproic acid was used as a positive control. Experiments were conducted using the general procedures of Zwart et al. (J. Pharmacol. Exp. Ther., 2014, 351:124-133). A bipolar electrode for electrical stimulation and EEG recording was stereotaxically implanted into one hemisphere of the basolateral amygdala (AP −2.2, ML −4.8, DV −8.5 mm, relative to bregma) of male Wistar rats. After post-operative recovery, electrical kindling begins, where a subthreshold constant current (400 μA, 1 ms, monophasic square-wave pulses, 60 Hz for 1 sec) is given once a day Monday-Friday for about 4-6 weeks until a rat is fully kindled. A fully kindled rat has experienced 10 consecutive stage 5 seizures or 10 of its last 12 were stage 5 according to the Racine Scale.
Twelve fully kindled rats were assigned to this study, and eight rats were selected and randomized to initial compound treatment groups from baseline after discharge threshold (ADT), seizure severity score, and after discharge duration (ADD). […] On test day, rats were dosed 30 min prior to beginning stimulation. After the pre-treatment, rats were stimulated using an ascending staircase sequence beginning at 10 μA and increasing in log unit steps of 10, 16, 25, 40, 65, 100, 160, 250, and 400 μA. Animals were stimulated until they were assigned a Seizure Severity Score for a visually observably seizure or they reached the 400 μA threshold limit. ADD was determined following testing. ADT was the current that induced a seizure; measurements were scale-adjusted to capture the stimulation scale change required to observe a seizure from the previous baseline to the ADT scored on test day. […] The average scale adjusted ADT was approximately 0.63 μA in vehicle treated rats.
Racine score of behavioral response to stimulation: 0=no behavioral response; 1=immobility, staring and/or facial clonus; 2=head nodding, jaw clonus, and/or tongue protrusion; 3=unilateral forelimb clonus; 4=bilateral forelimb clonus and/or rearing; 5=bilateral forelimb clonus with rearing and loss of balance.
After-Discharge Duration (ADD) is the duration of the first after-discharge.
ADT, ADD, and severity scores were analyzed by ANOVA. Seizure severity data was also analyzed by the nonparametric Skillings-Mack test, a generalization of the Friedman test for one-way repeated measures designs. Posthoc tests when reported were either by Dunnett's method (seizure severity) or using Wilcoxon sign rank tests (ADT and ADD). Valproic acid, used as a positive control was not used in ANOVA calculations.

[5] = tested on: electroshock-induced seizures; test: Mouse electroshock-induced seizure model; format: in vivo; settings: mice
Experimental: This assay detects effects of compounds that produce generalized seizures and those that dampen seizure spread. Male, CD1 mice (Taconic Farms) were studied at weights of 21-32 g. Mice=10/dose) were used with Wahlquist Model H stimulator with 0.2 sec stimulation with corneal electrodes. […] Mice were euthanized immediately following the test. Tonic extension was used as the primary endpoint.
as §1

[6] = tested on: PTZ-induced clonus; test: Pentylenetetrazole (PTZ, 35 mg/kg s.c.)-induced clonic convulsions; format: in vivo; settings: rats
Experimental: After the inverted screen test, the rats were dosed with pentylenetetrazole (PTZ)(35 mg/kg, s.c.) in a volume of 1 ml/kg and placed in an observation cage (40.6×20.3×15.2 cm) with a floor containing […] of wood chip bedding material. PTZ dose was determined to be ˜EC97 for producing clonic convulsions.

[7] = MED producing maximal protection (0% seizures)

CCCOc1cc2c(cn1)[nH]c1ccccc12.Cl [3-PBC.HCl]
percent maximal possible effect of midazolam ([1]; midazolam 5.6 mg/kg after 7 days of repeated midazolam with 3PBC.HCl (5.6 mg/kg) pretreatment twice a day): 52 % MMPE

CC(C)(C)OC(=O)c1cc2c(cn1)[nH]c1ccccc12 [BCCt, β-carboline-3-carboxylate-t-butyl ester]
percent maximal possible effect (MPE) of midazolam ([1]; midazolam 5.6 mg/kg after 7 days of repeated midazolam with BCCt (3.2 mg/kg) pretreatment twice a day): 92 % MPE

CCOC(=O)c1ncn2c1CN(C)C(=O)c1cc(F)ccc1-2 [Flumazenil, flumazenil]
effect on antinociceptive effects of KRM-II-81 ([1]; flumazenil pre-treatment before cumulative doses of KRM-II-81, CFA rats): dose-dependently attenuated

C#Cc1ccc2c(c1)C(c1ccccn1)=NCc1c(C(=O)OCC)ncn1-2 [HZ-166, ethyl 8-ethynyl-6-(pyridin-2-yl)-4H-benzo[f]imidazo[1,5-a][1,4]diazepine-3-carboxylate, reference compound]
muscle relaxation on inverted screen (result in words) ([2]; i.p., 30 min prior, KRM-II-81 10-60 mg/kg, HZ-166 30 mg/kg): Neither HZ-166 nor KRM-II-81 induced significant muscle relaxation | dose at which signs of muscle relaxation began to appear ([2]; i.p., inverted screen): 30 mg/kg | PTZ Threshold to Criteria ([3]; MED for producing ≥2× PTZ seizure threshold at baseline): >60 mg/kg | PTZ Threshold Poteny (MED) ([3]; lowest dose with statistically significant effect, rats, PTZ i.v.): >60 mg/kg | effect on dose of PTZ required to induce convulsions ([3]; rats, PTZ i.v. infusion, pretreatment 30 min): not active and displayed little protection up to 60 mg/kg | After-Discharge Duration to Criteria ([4]; MED for producing after-discharge duration ≤30 sec): >60 mg/kg | After-Discharge Threshold to Criteria ([4]; MED for producing after-discharge threshold ≥3): >60 mg/kg | Seizure Severity to Criteria ([4]; MED for producing seizure severity score ≤2): >60 mg/kg | After-Discharge Duration Potency (MED) ([4]; amygdala kindled rats): >60 mg/kg | After-Discharge Threshold Potency (MED) ([4]; amygdala kindled rats): >60 mg/kg | Seizure Severity Poteny (MED) ([4]; amygdala kindled rats): >60 mg/kg | Seizure free scores (seizure severity=0) ([4]; amygdala kindled rats, groups of 8): 0/8 | Electroshock to Criteria [5, 7]: >30 mg/kg | Electroshock (minimal effective dose, MED) ([5]; lowest dose with statistically significant protection vs vehicle): 30 mg/kg | protection against electroshock-induced seizures [5]: not efficacious up to 30 mg/kg | PTZ Clonus to Criteria 1 [6, 7]: >30 mg/kg | PTZ Clonus Potency (MED) ([6]; lowest dose with statistically significant protection, PTZ 35 mg/kg s.c.): >30 mg/kg | protection against PTZ-induced clonus ([6]; PTZ 35 mg/kg s.c.): did not significantly separate from vehicle up to 30 mg/kg

Cc1ncc2n1-c1ccc(Cl)cc1C(c1ccccc1F)=NC2 [midazolam]
percent maximal possible effect (MPE) of midazolam ([1]; midazolam 5.6 mg/kg after 7 days of repeated midazolam with saline pretreatment): 17 % MPE | percent maximal possible effect (MPE), attenuation of mechanical hyperalgesia ([1]; midazolam 5.6 mg/kg i.p., Day 0, prior to repeated treatment, CFA rats): 100 % MPE

CCCC(CCC)C(=O)O [valproate, Valproic acid, reference compound]
motor impairment on inverted screen ([2]; 300 mg/kg, positive control): full motor impairment
